In patent US12065436B2, “Cardiac sarcomere inhibitors” (Cytokinetics, Inc., priority 2018, dated 2024):

Biological target: bovine cardiac myofibrils (full-length cardiac myosin ATPase in the native sarcomere) (Bos taurus (Bovine), UniProt Q9BE39)
Test: Skinned bovine cardiac myofibril ATPase assay (PK/LDH-coupled)
Assay type: biochemical
Conditions: Ca2+ activating to 75% of maximal rate; for CDMF75 IC15: concentration giving 15% inhibition; for IC50: read-out: CDMF75 IC50
Method in brief: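 Triton-skinned bovine left-ventricle myofibrils (1 mg/mL) in PM 12 buffer (12 mM PIPES, 2 mM MgCl2, pH 6.8) with 50 μM ATP, 0.6 mM EGTA and CaCl2 set for 50% or 75% activation. Steady-state ATPase inhibition followed by PK/LDH-coupled NADH oxidation at 340 nm.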

Sequence of bovine cardiac myofibrils (full-length cardiac myosin ATPase in the native sarcomere) (Q9BE39 whole entry): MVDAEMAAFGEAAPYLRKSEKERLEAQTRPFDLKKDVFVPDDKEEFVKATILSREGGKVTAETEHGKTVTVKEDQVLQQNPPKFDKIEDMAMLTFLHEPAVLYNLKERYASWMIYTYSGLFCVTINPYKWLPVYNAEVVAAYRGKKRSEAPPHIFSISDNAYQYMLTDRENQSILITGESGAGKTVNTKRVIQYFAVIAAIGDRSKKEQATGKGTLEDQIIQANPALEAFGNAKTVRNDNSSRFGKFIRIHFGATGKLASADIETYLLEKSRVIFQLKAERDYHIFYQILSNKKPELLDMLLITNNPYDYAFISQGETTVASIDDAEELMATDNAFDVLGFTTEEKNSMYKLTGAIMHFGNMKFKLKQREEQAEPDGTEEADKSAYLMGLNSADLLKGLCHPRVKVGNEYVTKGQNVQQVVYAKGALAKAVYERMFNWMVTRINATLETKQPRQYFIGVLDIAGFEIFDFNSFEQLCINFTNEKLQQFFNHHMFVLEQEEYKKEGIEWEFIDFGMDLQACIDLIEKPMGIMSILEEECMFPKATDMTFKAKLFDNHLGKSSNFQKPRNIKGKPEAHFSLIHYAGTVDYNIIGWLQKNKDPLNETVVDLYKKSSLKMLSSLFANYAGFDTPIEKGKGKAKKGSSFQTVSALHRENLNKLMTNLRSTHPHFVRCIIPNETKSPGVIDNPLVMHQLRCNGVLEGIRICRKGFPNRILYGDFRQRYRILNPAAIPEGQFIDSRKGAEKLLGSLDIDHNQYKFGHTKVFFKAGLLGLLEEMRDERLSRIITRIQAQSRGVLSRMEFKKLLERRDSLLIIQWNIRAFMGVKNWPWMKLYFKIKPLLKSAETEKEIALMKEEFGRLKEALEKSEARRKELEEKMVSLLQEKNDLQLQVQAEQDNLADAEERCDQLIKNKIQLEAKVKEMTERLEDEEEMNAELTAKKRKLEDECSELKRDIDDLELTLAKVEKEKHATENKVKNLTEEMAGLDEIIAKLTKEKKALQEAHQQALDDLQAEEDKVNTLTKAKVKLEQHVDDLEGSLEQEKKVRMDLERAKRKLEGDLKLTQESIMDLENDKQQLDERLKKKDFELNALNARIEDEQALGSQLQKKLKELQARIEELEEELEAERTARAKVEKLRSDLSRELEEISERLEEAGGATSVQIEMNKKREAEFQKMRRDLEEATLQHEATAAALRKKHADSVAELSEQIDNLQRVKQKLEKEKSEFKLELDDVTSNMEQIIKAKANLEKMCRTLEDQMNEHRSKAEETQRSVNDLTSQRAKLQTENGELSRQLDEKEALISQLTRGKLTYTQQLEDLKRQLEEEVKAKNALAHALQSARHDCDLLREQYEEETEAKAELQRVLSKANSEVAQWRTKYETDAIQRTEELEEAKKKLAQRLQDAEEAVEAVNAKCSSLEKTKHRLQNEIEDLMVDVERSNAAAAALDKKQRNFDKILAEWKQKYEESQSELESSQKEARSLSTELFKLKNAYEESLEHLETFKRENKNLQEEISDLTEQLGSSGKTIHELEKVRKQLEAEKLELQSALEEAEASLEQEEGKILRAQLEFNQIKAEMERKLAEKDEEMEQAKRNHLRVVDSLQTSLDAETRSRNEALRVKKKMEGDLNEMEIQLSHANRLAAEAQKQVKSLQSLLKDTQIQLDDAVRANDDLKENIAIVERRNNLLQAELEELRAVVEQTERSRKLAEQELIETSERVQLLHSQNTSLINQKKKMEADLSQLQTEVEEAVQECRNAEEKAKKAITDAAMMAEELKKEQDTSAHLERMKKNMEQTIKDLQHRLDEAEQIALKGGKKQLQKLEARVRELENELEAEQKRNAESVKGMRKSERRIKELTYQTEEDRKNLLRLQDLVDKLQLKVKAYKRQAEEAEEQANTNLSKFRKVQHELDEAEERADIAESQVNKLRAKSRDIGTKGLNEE
Sequence of bovine cardiac myofibrils (full-length cardiac myosin ATPase in the native sarcomere) (P85100 whole entry partner): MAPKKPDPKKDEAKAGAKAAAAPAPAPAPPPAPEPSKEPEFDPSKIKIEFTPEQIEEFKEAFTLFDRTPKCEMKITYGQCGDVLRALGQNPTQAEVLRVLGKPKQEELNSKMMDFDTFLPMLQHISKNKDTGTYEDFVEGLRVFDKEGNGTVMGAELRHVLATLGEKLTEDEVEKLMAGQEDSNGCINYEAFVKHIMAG
Sequence of bovine cardiac myofibrils (full-length cardiac myosin ATPase in the native sarcomere) (Q3SZE5 whole entry partner): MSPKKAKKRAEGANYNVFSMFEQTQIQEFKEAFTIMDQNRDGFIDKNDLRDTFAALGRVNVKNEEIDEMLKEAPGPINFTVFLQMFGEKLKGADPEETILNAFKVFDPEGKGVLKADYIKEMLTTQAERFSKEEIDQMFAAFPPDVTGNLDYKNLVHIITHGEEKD

SMILES | CDMF75 IC15 | IC50
Cc1cc(C(=O)N[C@@H]2COc3cc(-c4cc(C)on4)ccc32)ccn1 [Compound 430, (S)-2-methyl-N-(6-(5-methylisoxazol-3-yl)-2,3-dihydrobenzofuran-3-yl)isonicotinamide] | 1.0 µM | 3.2 µM
O=C(N[C@@H]1CCc2cc(-c3noc(C(F)F)n3)ccc21)c1cc(CO)ccn1 [Compound 667, (R)-N-(5-(5-(difluoromethyl)-1,2,4-oxadiazol-3-yl)-2,3-dihydro-1H-inden-1-yl)-4-(hydroxymethyl)picolinamide] | 0.9 µM | 3.7 µM
Cc1cc(C(=O)N[C@@H]2CCc3cc(-c4cnc(C)o4)ccc32)ccn1 [Compound 135, (R)-2-methyl-N-(5-(2-methyloxazol-5-yl)-2,3-dihydro-1H-inden-1-yl)isonicotinamide] | 39.2 µM | > 39.2 µM
CCc1nc(-c2cc(F)c3c(c2)CC[C@H]3NC(=O)c2cnn(C)c2)no1 [Compound 554, (R)-N-(5-(5-ethyl-1,2,4-oxadiazol-3-yl)-7-fluoro-2,3-dihydro-1H-inden-1-yl)-1-methyl-1H-pyrazole-4-carboxamide] | 0.4 µM | 1.5 µM
CCc1nc(-c2ccc3c(c2)CC[C@H]3NC(=O)OCC2CN(C(N)=O)C2)no1 [Compound 362, (1-carbamoylazetidin-3-yl)methyl (R)-(5-(5-ethyl-1,2,4-oxadiazol-3-yl)-2,3-dihydro-1H-inden-1-yl)carbamate] | 1.9 µM | 6.6 µM
Cc1ncc(C(=O)N[C@@H]2COc3cc(-c4noc(C(F)F)n4)ccc32)o1 [Compound 206, (S)-N-(6-(5-(difluoromethyl)-1,2,4-oxadiazol-3-yl)-2,3-dihydrobenzofuran-3-yl)-2-methyloxazole-5-carboxamide] | 0.7 µM | 2.3 µM
Cc1cc(C(=O)NC2CCc3cc(-c4cc(C(F)F)no4)ccc32)ccn1 (centres unmarked) [Compound 170, N-(5-(3-(difluoromethyl)isoxazol-5-yl)-2,3-dihydro-1H-inden-1-yl)-2-methylisonicotinamide] | 3.8 µM | 15.9 µM
COCc1nc(-c2ccc3c(c2)OC[C@H]3NC(=O)c2cccc(CO)c2)no1 [Compound 711, (S)-3-(hydroxymethyl)-N-(6-(5-(methoxymethyl)-1,2,4-oxadiazol-3-yl)-2,3-dihydrobenzofuran-3-yl)benzamide] | 0.8 µM | 2.8 µM
CC(C)C(=O)N[C@@H]1CCc2cc(-c3noc(C(F)F)n3)ccc21 [Compound 284, (R)-N-(5-(5-(difluoromethyl)-1,2,4-oxadiazol-3-yl)-2,3-dihydro-1H-inden-1-yl)isobutyramide] | 38.5 µM | > 39.2 µM
CCc1nc(-c2ccc3c(c2)CC[C@H]3NC(=O)c2ccc(=O)n(CC(=O)O)c2)no1 [Compound 614, (R)-2-(5-((5-(5-ethyl-1,2,4-oxadiazol-3-yl)-2,3-dihydro-1H-inden-1-yl)carbamoyl)-2-oxopyridin-1(2H)-yl)acetic acid] | 3.4 µM | 14.7 µM
O=C(N[C@@H]1CCc2cc(-c3noc(C(F)F)n3)ccc21)N1CCCC1 [Compound 300, (R)-N-(5-(5-(difluoromethyl)-1,2,4-oxadiazol-3-yl)-2,3-dihydro-1H-inden-1-yl)pyrrolidine-1-carboxamide] | 12.3 µM | > 39.2 µM
COCc1nc(-c2ccc3c(c2)CC[C@H]3NC(=O)c2cccc([C@@H](C)O)c2)no1 [Compound 729, 3-((R)-1-hydroxyethyl)-N-((R)-5-(5-(methoxymethyl)-1,2,4-oxadiazol-3-yl)-2,3-dihydro-1H-inden-1-yl)benzamide] | 2.6 µM | 13.2 µM
Cc1nc(-c2ccc3c(c2)OC[C@H]3NC(=O)c2cnn(C)c2C)no1 [Compound 163, (S)-1,5-dimethyl-N-(6-(5-methyl-1,2,4-oxadiazol-3-yl)-2,3-dihydrobenzofuran-3-yl)-1H-pyrazole-4-carboxamide] | 0.8 µM | 3.1 µM

Further lines, results first:

CDMF75 IC15 | IC50 | SMILES
1.2 µM | 4.7 µM | Cc1cc(C(=O)N[C@@H]2CCc3cc(-c4nc(C(F)F)no4)ccc32)n(C)n1 [Compound 213, (R)-N-(5-(3-(difluoromethyl)-1,2,4-oxadiazol-5-yl)-2,3-dihydro-1H-inden-1-yl)-1,3-dimethyl-1H-pyrazole-5-carboxamide]
4.9 µM | 26 µM | CC(=O)O[C@@H](C)c1nc(-c2ccc3c(c2)CCC3NC(=O)c2cn(C)nc2C)no1 (stereo partly drawn) [Compound 77, (1S)-1-(3-(1-(1,3-dimethyl-1H-pyrazole-4-carboxamido)-2,3-dihydro-1H-inden-5-yl)-1,2,4-oxadiazol-5-yl)ethyl acetate]
5.7 µM | 28.2 µM | Cc1nc(-c2ccc3c(c2)CCC3NC(=O)c2ncccc2C)no1 (centres unmarked) [Compound 59, 3-methyl-N-(5-(5-methyl-1,2,4-oxadiazol-3-yl)-2,3-dihydro-1H-inden-1-yl)picolinamide]
1.1 µM | 4.2 µM | CCc1nc(-c2ccc3c(c2)CC[C@H]3NC(=O)c2cnn(CCOC)c2C)no1 [Compound 575, (R)-N-(5-(5-ethyl-1,2,4-oxadiazol-3-yl)-2,3-dihydro-1H-inden-1-yl)-1-(2-methoxyethyl)-5-methyl-1H-pyrazole-4-carboxamide]
2.4 µM | 9.8 µM | Cc1nc(-c2ccc3c(c2)CCC3NC(=O)c2ncnn2C)no1 (centres unmarked) [Compound 120, 1-methyl-N-(5-(5-methyl-1,2,4-oxadiazol-3-yl)-2,3-dihydro-1H-inden-1-yl)-1H-1,2,4-triazole-5-carboxamide]
6.6 µM | 39.2 µM | CCc1nc(-c2ccc3c(c2)CC[C@H]3NC(=O)c2coc(CS(C)(=O)=O)n2)no1 [Compound 468, (R)-N-(5-(5-ethyl-1,2,4-oxadiazol-3-yl)-2,3-dihydro-1H-inden-1-yl)-2-((methylsulfonyl)methyl)oxazole-4-carboxamide]
0.3 µM | 1.2 µM | Cc1nn(C)cc1C(=O)N[C@@H]1CCc2cc(-c3noc(C4CCC4)n3)ccc21 [Compound 150, (R)-N-(5-(5-cyclobutyl-1,2,4-oxadiazol-3-yl)-2,3-dihydro-1H-inden-1-yl)-1,3-dimethyl-1H-pyrazole-4-carboxamide]
2.1 µM | 9.4 µM | CCc1nc(-c2ccc3c(c2)CC[C@H]3NC(=O)c2ccncc2C)no1 [Compound 629, (R)-N-(5-(5-ethyl-1,2,4-oxadiazol-3-yl)-2,3-dihydro-1H-inden-1-yl)-3-methylisonicotinamide]
1.0 µM | 3.3 µM | Cc1nc(-c2ccc3c(c2)CCC3NC(=O)c2conc2C)no1 (centres unmarked) [Compound 89, 3-methyl-N-(5-(5-methyl-1,2,4-oxadiazol-3-yl)-2,3-dihydro-1H-inden-1-yl)isoxazole-4-carboxamide]
1.5 µM | 6.7 µM | CCc1nc(-c2ccc3c(c2)CC[C@H]3NC(=O)c2cc(C(C)O)ccn2)no1 (stereo partly drawn) [Compound 721, N-((R)-5-(5-ethyl-1,2,4-oxadiazol-3-yl)-2,3-dihydro-1H-inden-1-yl)-4-(1-hydroxyethyl)picolinamide]
1.0 µM | 5.8 µM | CCc1nc(-c2ccc3c(c2)OCC[C@H]3NC(=O)c2cnn(C)c2)no1 [Compound 535, (R)-N-(7-(5-ethyl-1,2,4-oxadiazol-3-yl)chroman-4-yl)-1-methyl-1H-pyrazole-4-carboxamide]
0.4 µM | 1.5 µM | Cc1nn(C)cc1C(=O)N[C@@H]1CCc2cc(-c3noc(C4CC4)n3)ccc21 [Compound 154, (R)-N-(5-(5-cyclopropyl-1,2,4-oxadiazol-3-yl)-2,3-dihydro-1H-inden-1-yl)-1,3-dimethyl-1H-pyrazole-4-carboxamide]
2.6 µM | 13.6 µM | COC(=O)c1nc(-c2ccc3c(c2)CCC3NC(=O)c2cn(C)nc2C)no1 (centres unmarked) [Compound 78, methyl 3-(1-(1,3-dimethyl-1H-pyrazole-4-carboxamido)-2,3-dihydro-1H-inden-5-yl)-1,2,4-oxadiazole-5-carboxylate]
2.2 µM | 9 µM | [2H]C([2H])([2H])c1nc(-c2ccc3c(c2)CC[C@H]3NC(=O)c2ccc(=O)n(C)c2)no1 [Compound 646, (R)-1-methyl-N-(5-(5-(methyl-d3)-1,2,4-oxadiazol-3-yl)-2,3-dihydro-1H-inden-1-yl)-6-oxo-1,6-dihydropyridine-3-carboxamide]
0.4 µM | 1.3 µM | CCc1nc(-c2ccc3c(c2)CCC[C@H]3NC(=O)c2ccnn2C)no1 [Compound 526, (R)-N-(6-(5-ethyl-1,2,4-oxadiazol-3-yl)-1,2,3,4-tetrahydronaphthalen-1-yl)-1-methyl-1H-pyrazole-5-carboxamide]
1.5 µM | 8.7 µM | CCc1nc(-c2ccc3c(c2)CC[C@H]3NC(=O)c2cnn(C(C)CO)c2)no1 (stereo partly drawn) [Compound 533, N-((R)-5-(5-ethyl-1,2,4-oxadiazol-3-yl)-2,3-dihydro-1H-inden-1-yl)-1-(1-hydroxypropan-2-yl)-1H-pyrazole-4-carboxamide]
2.6 µM | 10.5 µM | Cc1noc(-c2ccc3c(c2)CC[C@H]3NC(=O)c2cnc(C)o2)n1 [Compound 202, (R)-2-methyl-N-(5-(3-methyl-1,2,4-oxadiazol-5-yl)-2,3-dihydro-1H-inden-1-yl)oxazole-5-carboxamide]
2.9 µM | 13.3 µM | COCc1nc(-c2ccc3c(c2)CC[C@H]3NC(=O)c2cnn(CCO)c2)no1 [Compound 523, (R)-1-(2-hydroxyethyl)-N-(5-(5-(methoxymethyl)-1,2,4-oxadiazol-3-yl)-2,3-dihydro-1H-inden-1-yl)-1H-pyrazole-4-carboxamide]
